Measured values: ChEMBL document CHEMBL5726156, “Pyridone or pyrimidone derivative, preparation method therefor and application thereof” (2019)

Target: Coagulation factor XI (Homo sapiens, UniProt P03951)
Test: In Vitro Inhibitory Effect of the Compounds of the Present Invention on the Enzymatic Activity of Blood-Coagulation Factor XIa: The following method was used to test the in vitro inhibitory effect of the compounds of the present invention on the activity of human blood-coagulation factor XIa, expressed by the Inhibition constant Ki.Solution preparation: reaction buffer: 0.03M HEPES acid, 0.145M NaCl, 0.005 M KCl, 0.1% PEG-8000, pH=7.5;HEPES 8.499 g, NaCl 8.47 g, KCl 0.3725, PEG 8000 1 g, plus ddH2O 800 ml; the pH was adjusted to 7.4 with HCl, and the volume was metered to 1 L.S2366 substrate stock solution (2 mM): a volume of substrate ([…]) was dissolved in 23 ml sterile deionized water, aliquoted, and stored at 4° C. in darkness.S2366 substrate working solution: the stock solution was diluted by 4 folds with the reaction buffer before use.FXIa working solution: 1 μl FXIa stock solution was added to 10 ml reaction buffer and thoroughly mixed before use.Method: 15 μl test sample working solution (15 μl DMSO for the control group) and 75 μl FXIa working solution were added to a 96-well plate, and incubated at room temperature for 15 min. Then 60 μl S2366 substrate working solution was added to initiate the reaction. […]

Chain of Coagulation factor XI (P03951 19-387 limits assumed): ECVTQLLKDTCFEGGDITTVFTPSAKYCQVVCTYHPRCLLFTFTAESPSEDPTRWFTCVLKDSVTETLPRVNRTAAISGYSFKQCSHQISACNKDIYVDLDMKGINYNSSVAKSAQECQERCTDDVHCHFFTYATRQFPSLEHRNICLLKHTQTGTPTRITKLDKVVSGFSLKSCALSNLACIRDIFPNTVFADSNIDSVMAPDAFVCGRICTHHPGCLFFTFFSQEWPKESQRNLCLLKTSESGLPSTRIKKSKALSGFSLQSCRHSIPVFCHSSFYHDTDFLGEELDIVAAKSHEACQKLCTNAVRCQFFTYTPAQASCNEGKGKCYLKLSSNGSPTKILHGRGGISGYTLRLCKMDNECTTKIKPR
Chain of Coagulation factor XI (P03951 388-625 limits assumed): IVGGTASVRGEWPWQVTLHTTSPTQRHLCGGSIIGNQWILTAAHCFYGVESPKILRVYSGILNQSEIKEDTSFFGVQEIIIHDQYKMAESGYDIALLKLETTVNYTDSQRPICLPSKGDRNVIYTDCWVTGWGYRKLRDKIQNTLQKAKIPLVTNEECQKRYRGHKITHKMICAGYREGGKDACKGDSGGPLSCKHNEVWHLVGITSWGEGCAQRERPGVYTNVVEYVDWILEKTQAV

COC(=O)Nc1ccc(NC(=O)C2CCc3cc(-c4cc(Cl)ccc4-n4cnnn4)cc(=O)n32)cc1 (stereo unspecified)
Ki: 344 nM
